# From the supplement of paper PMC9663587
# Tests used:
# Assay in all cases: GR value, 72 h; higher = faster growth (1 = untreated, <0 = killing);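 note: breast cancer and non-malignant breast epithelial lines, nine half-log doses, viable cells counted by Hoechst and LIVE/DEAD dye imaging versus time-zero plates and DMSO controls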
# Everolimus = compound: CO[C@H]1C[C@@H]2CC[C@@H](C)[C@@](O)(O2)C(=O)C(=O)N2CCCC[C@H]2C(=O)O[C@H]([C@H](C)C[C@@H]2CC[C@@H](OCCO)[C@H](OC)C2)CC(=O)[C@H](C)/C=C(\C)[C@@H](O)[C@@H](OC)C(=O)[C@H](C)C[C@H](C)/C=C/C=C/C=C/1C [Everolimus]
# Alpelisib/BYL719 = compound: Cc1nc(NC(=O)N2CCC[C@H]2C(N)=O)sc1-c1ccnc(C(C)(C)C(F)(F)F)c1 [Alpelisib/BYL719]
# Volasertib/BI6727 = compound: CC[C@@H]1C(=O)N(C)c2cnc(Nc3ccc(C(=O)N[C@H]4CC[C@H](N5CCN(CC6CC6)CC5)CC4)cc3OC)nc2N1C(C)C [Volasertib/BI6727]
# [1] = compound: Cc1nn(C)c(COc2ccc(N3CCN(S(=O)(=O)N(C)C)CC3)cc2)c1-c1cccc2c(CCCOc3cccc4ccccc34)c(C(=O)O)n(CCN3CCOCC3)c12
# Paclitaxel = compound: CC(=O)O[C@H]1C(=O)[C@@]2(C)[C@H]([C@H](OC(=O)c3ccccc3)[C@]3(O)C[C@H](OC(=O)[C@H](O)[C@@H](NC(=O)c4ccccc4)c4ccccc4)C(C)=C1C3(C)C)[C@]1(OC(C)=O)CO[C@@H]1C[C@@H]2O [Paclitaxel]
# FMF-03-146-1 = compound: CN1CCN(CC1)C2=CC(=C(C=C2)NC3=NC=C4C(=N3)N(C5=CC=CC=C5C(=O)N4CC(F)(F)F)C)OC [FMF-03-146-1]
cell line,measurement,setting,value
AU565,GR value,Everolimus; 0.001 µM,0.523 GR
same,GR value,Everolimus; 0.003162 µM,0.451 GR
same,GR value,Everolimus; 0.01 µM,0.429 GR
same,GR value,Everolimus; 0.03162 µM,0.494 GR
same,GR value,Everolimus; 0.1 µM,0.396 GR
same,GR value,Everolimus; 0.3162 µM,0.509 GR
same,GR value,Everolimus; 1 µM,0.408 GR
same,GR value,Everolimus; 3.162 µM,0.454 GR
same,GR value,Everolimus; 10 µM,0.398 GR
same,GR value,Alpelisib/BYL719; 0.001 µM,0.962 GR
same,GR value,Alpelisib/BYL719; 0.003162 µM,1.06 GR
same,GR value,Alpelisib/BYL719; 0.01 µM,0.931 GR
same,GR value,Alpelisib/BYL719; 0.03162 µM,0.762 GR
same,GR value,Alpelisib/BYL719; 0.1 µM,0.621 GR
same,GR value,Alpelisib/BYL719; 0.3162 µM,0.504 GR
same,GR value,Alpelisib/BYL719; 1 µM,0.215 GR
same,GR value,Alpelisib/BYL719; 3.162 µM,-0.0201 GR
same,GR value,Alpelisib/BYL719; 10 µM,-0.464 GR
same,GR value,Volasertib/BI6727; 0.0001 µM,1.07 GR
same,GR value,Volasertib/BI6727; 0.0003162 µM,0.998 GR
same,GR value,Volasertib/BI6727; 0.001 µM,0.912 GR
same,GR value,Volasertib/BI6727; 0.003162 µM,0.756 GR
same,GR value,Volasertib/BI6727; 0.01 µM,-0.409 GR
same,GR value,Volasertib/BI6727; 0.03162 µM,-0.516 GR
same,GR value,Volasertib/BI6727; 0.1 µM,-0.458 GR
same,GR value,Volasertib/BI6727; 0.3162 µM,-0.455 GR
same,GR value,Volasertib/BI6727; 1 µM,-0.206 GR
same,GR value,[1]; 0.001 µM,1.03 GR
same,GR value,[1]; 0.003162 µM,1.04 GR
same,GR value,[1]; 0.01 µM,1.09 GR
same,GR value,[1]; 0.03162 µM,1.03 GR
same,GR value,[1]; 0.1 µM,1.06 GR
same,GR value,[1]; 0.3162 µM,1.05 GR
same,GR value,[1]; 1 µM,1.03 GR
same,GR value,[1]; 3.162 µM,1.05 GR
same,GR value,[1]; 10 µM,0.613 GR
same,GR value,Paclitaxel; 0.0001 µM,1.05 GR
same,GR value,Paclitaxel; 0.0003162 µM,1.1 GR
same,GR value,Paclitaxel; 0.001 µM,0.919 GR
same,GR value,Paclitaxel; 0.003162 µM,-0.244 GR
same,GR value,Paclitaxel; 0.01 µM,-0.459 GR
same,GR value,Paclitaxel; 0.03162 µM,-0.515 GR
same,GR value,Paclitaxel; 0.1 µM,-0.482 GR
same,GR value,Paclitaxel; 0.3162 µM,-0.467 GR
same,GR value,Paclitaxel; 1 µM,-0.475 GR
same,GR value,FMF-03-146-1; 0.001 µM,0.955 GR
same,GR value,FMF-03-146-1; 0.003162 µM,1.02 GR
same,GR value,FMF-03-146-1; 0.01 µM,1.03 GR
same,GR value,FMF-03-146-1; 0.03162 µM,1 GR
